# Reference: patent US20240058450A1, “BCL-XL Inhibitory Compounds Having Low Cell Permeability and Antibody Drug Conjugates Including the Same” (AbbVie Inc., priority 2014, published 2024)
# Where two headings read alike, the source gives them in different places.
# Columns and labels:
# [1] = test system: Molt-4 human acute lymphoblastic leukemia cells; test: Molt-4 cell viability assay (CellTiter-Glo, 48 hours, 10% HS); format: cell-based; settings: non-permeabilized cells
# Protocol: The ability of Bcl-xL inhibitors that are able to traverse cell membranes to inhibit Bcl-xL can be determined in cell-based killing assays using a variety of cell lines and mouse tumor models. For example, their activity on cell viability can be assessed on a panel of cultured tumorigenic and non-tumorigenic cell lines, as well as primary mouse or human cell populations.
# In one exemplary set of conditions, Molt-4 (ATCC, Manassas, VA) human acute lymphoblastic leukemia cells were plated 12,500 cells per well in 384-well tissue culture plates (Corning, Corning, NY) in a total volume of 25 μL tissue culture medium supplemented with 10% human serum (Sigma-Aldrich, St. Louis, MO) and treated with a 3-fold serial dilution of the compounds of interest from 10 μM to 0.0005 μM. Each concentration was tested in duplicate at least 3 separate times. The number of viable cells following 48 hours of compound treatment was determined using the CellTiter-Glo®, Luminescent Cell Viability Assay according to the manufacturer's recommendations (Promega Corp., Madison, WI). Compounds were tested in the presence of 10% HS.
# Bcl-xL = Bcl-xL (Homo sapiens, UniProt Q07817); test: Time Resolved-Fluorescence Resonance Energy Transfer (TR-FRET) binding assay, competition with probe F-Bak
# Bcl-xL, sequence (Q07817 whole entry): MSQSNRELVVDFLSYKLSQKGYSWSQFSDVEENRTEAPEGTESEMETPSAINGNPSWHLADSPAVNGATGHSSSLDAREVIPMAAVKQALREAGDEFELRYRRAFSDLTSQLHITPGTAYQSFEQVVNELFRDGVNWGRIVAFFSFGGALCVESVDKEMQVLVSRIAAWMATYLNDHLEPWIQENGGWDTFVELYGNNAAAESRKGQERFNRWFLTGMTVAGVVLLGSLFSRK
# Protocol: Tb-anti-GST antibody was purchased from Invitrogen (Catalog No. PV4216).
# For the assay, test compounds were serially diluted in DMSO starting at 50 μM (2× starting concentration; 10% DMSO) and 10 μL transferred into a 384-well plate. 10 μL of a protein/probe/antibody mix was then added to each well at final concentrations listed below:
# The samples were then mixed on a shaker for 1 minute and incubated for an additional 2 hours at room temperature. For each assay plate, a probe/antibody and protein/antibody/probe mixture were included as a negative and a positive control, respectively. Fluorescence was measured on the Envision (Perkin Elmer) using a 340/35 nm excitation filter and 520/525 (F-Bak) and 495/510 nm (Tb-labeled anti-his antibody) emission filters. Dissociation constants (Ki) were determined using Wang's equation (Wang, 1995, FEBS Lett. 360:111-114). The TR-FRET assay can be performed in the presence of varying concentrations of human serum (HS) or fetal bovine serum (FBS). Compounds were tested both without HS and in the presence of 1% HS.
# [2] = in the presence of 1% HS, read-out: Bcl-xL Binding Ki (nM, 1% HS)
# [3] = without HS, read-out: Bcl-xL Binding Ki
Structure (SMILES),"EC50 ([1]; Homo sapiens, MOLT-4, 48 h) [nM]",Ki (Bcl-xL; [2]) [nM],Ki (Bcl-xL; [3]) [nM],EC50 [1] [nM]
"Cc1c(-c2ccc(N3CCc4cccc(C(=O)Nc5nc6ccccc6s5)c4C3)nc2C(=O)O)cnn1CC12CC3(C)CC(C)(C1)CC(OCCNCc1ccc(S(=O)(=O)N[C@@H]4[C@@H](O)[C@H](O)[C@@H](CO)O[C@H]4O)cc1)(C3)C2 [Example 1.8, 2-({[4-({[2-({3-[(4-{6-[8-(1,3-benzothiazol-2-ylcarbamoyl)-3,4-dihydroisoquinolin-2 (1H)-yl]-2-carboxypyridin-3-yl}-5-methyl-1H-pyrazol-1-yl)methyl]-5,7-dimethyltricyclo[3.3.1.1^3,7]dec-1-yl}oxy)ethyl]amino}methyl)phenyl]sulfonyl}amino)-2-deoxy-beta-D-glucopyranose]",108,0.19,0.0019,
"Cc1c(-c2ccc(-c3ccc4c(c3)N(C(=O)Nc3nc5ccccc5s3)CCC4)nc2C(=O)O)cnn1CC12CC3(C)CC(C)(C1)CC(OCCN(C)C(=O)[C@@H](N)CS(=O)(=O)O)(C3)C2 [Example 1.21, 6-[1-(1,3-benzothiazol-2-ylcarbamoyl)-1,2,3,4-tetrahydroquinolin-7-yl]-3-(1-[(3,5-dimethyl-7-(2-[methyl(3-sulfo-L-alanyl)amino]ethoxy}tricyclo[3.3.1.1^3,7]dec-1-yl)methyl]-5-methyl-1H-pyrazol-4-yl)pyridine-2-carboxylic acid]",420,0.22,0.004,
Cc1c(-c2ccc(N3CCc4cccc(C(=O)Nc5nc6ccccc6s5)c4C3)nc2C(=O)O)cnn1CC12CC3(C)CC(C)(C1)CC(OCCN(C)C(=O)[C@H](N)CC(=O)O)(C3)C2 [Example 1.27],,0.18,< 0.001,935
"Cc1c(-c2ccc(N3CCc4cccc(C(=O)Nc5nc6ccccc6s5)c4C3)nc2C(=O)O)cnn1CC12CC3(C)CC(C)(C1)CC(OCCN(CCS(=O)(=O)O)C1CCNCC1)(C3)C2 [Example 1.30, 6-[8-(1,3-benzothiazol-2-ylcarbamoyl)-3,4-dihydroisoquinolin-2 (1H)-yl]-3-{1-[(3,5-dimethyl-7-{2-[piperidin-4-yl(2-sulfoethyl)amino]ethoxy}tricyclo[3.3.1.1^3,7]dec-1-yl)methyl]-5-methyl-1H-pyrazol-4-yl}pyridine-2-carboxylic acid]",184,0.12,< 0.001,
"CNCCOC12CC3(C)CC(C)(CC(Cn4ncc(-c5ccc(N6CCc7c(OCCCP(=O)(O)O)ccc(C(=O)Nc8nc9ccccc9s8)c7C6)nc5C(=O)O)c4C)(C3)C1)C2 [Example 1.31, 6-[8-(1,3-benzothiazol-2-ylcarbamoyl)-5-(3-phosphonopropoxy)-3,4-dihydroisoquinolin-2 (1H)-yl]-3-[1-({3,5-dimethyl-7-[2-(methylamino)ethoxy]tricyclo[3.3.1.1^3,7]dec-1-yl}methyl)-5-methyl-1H-pyrazol-4-yl]pyridine-2-carboxylic acid]",446,0.055,< 0.001,
"CNCCOC12CC3(C)CC(C)(CC(Cn4ncc(-c5ccc(N6CCc7c(OCCN)ccc(C(=O)Nc8nc9ccccc9s8)c7C6)nc5C(=O)O)c4C)(C3)C1)C2 [Example 1.34, 6-[5-(2-aminoethoxy)-8-(1,3-benzothiazol-2-ylcarbamoyl)-3,4-dihydroisoquinolin-2 (1H)-yl]-3-[1-({3,5-dimethyl-7-[2-(methylamino)ethoxy]tricyclo[3.3.1.1^3,7]dec-1-yl}methyl)-5-methyl-1H-pyrazol-4-yl]pyridine-2-carboxylic acid]",87.7,0.031,,
"Cc1c(-c2ccc(-c3ccc4cccc(C(=O)Nc5nc6ccccc6s5)c4c3)nc2C(=O)O)cnn1CC12CC3(C)CC(C)(C1)CC(OCCNCCCS(=O)(=O)O)(C3)C2 [Example 1.35, 6-[8-(1,3-benzothiazol-2-ylcarbamoyl)naphthalen-2-yl]-3-{1-[(3,5-dimethyl-7-{2-[(3-sulfopropyl)amino]ethoxy}tricyclo[3.3.1.1^3,7]dec-1-yl)methyl]-5-methyl-1H-pyrazol-4-yl}pyridine-2-carboxylic acid]",238,0.439,< 0.001,

# Continued, in another order:
"EC50 ([1]; Homo sapiens, MOLT-4, 48 h) [nM]",Ki (Bcl-xL; [2]) [nM],Ki (Bcl-xL; [3]) [nM],Structure (SMILES),EC50 [1] [nM]
26,0.09,< 0.001,"Cc1c(-c2ccc(N3CCc4cccc(C(=O)Nc5nc6ccccc6s5)c4C3)nc2C(=O)O)cnn1CC12CC3(C)CC(C)(C1)CC(OCCNCCOCCOCC(=O)O)(C3)C2 [Example 1.1, 6-[8-(1,3-benzothiazol-2-ylcarbamoyl)-3,4-dihydroisoquinolin-2 (1H)-yl]-3-[1-({3-[2-({2-[2-(carboxymethoxy)ethoxy]ethyl}amino)ethoxy]-5,7-dimethyltricyclo[3.3.1.1^3,7]dec-1-yl]methyl)-5-methyl-1H-pyrazol-4-yl]pyridine-2-carboxylic acid]",
23,0.18,0.0011,"Cc1c(-c2ccc(N3CCc4cccc(C(=O)Nc5nc6ccccc6s5)c4C3)nc2C(=O)O)cnn1CC12CC3(C)CC(C)(C1)CC(OCCNCCS(=O)(=O)N[C@H]1C(O)O[C@H](CO)[C@@H](O)[C@@H]1O)(C3)C2 (stereo partly drawn) [Example 1.3, 2-{[(2-{[2-({3-[(4-{6-[8-(1,3-benzothiazol-2-ylcarbamoyl)-3,4-dihydroisoquinolin-2 (1H)-yl]-2-carboxypyridin-3-yl}-5-methyl-1H-pyrazol-1-yl)methyl]-5,7-dimethyltricyclo[3.3.1.1^3,7]dec-1-yl)oxy)ethyl]amino)ethyl)sulfonyl]amino}-2-deoxy-D-glucopyranose]",
12,0.24,,"Cc1c(-c2ccc(N3CCc4cccc(C(=O)Nc5nc6ccccc6s5)c4C3)nc2C(=O)O)cnn1CC12CC3(C)CC(C)(C1)CC(OCCNCC(O)CO)(C3)C2 (stereo not shown) [Example 1.7, 6-[8-(1,3-benzothiazol-2-ylcarbamoyl)-3,4-dihydroisoquinolin-2 (1H)-yl]-3-{1-[(3-{2-[(2,3-dihydroxypropyl)amino]ethoxy}-5,7-dimethyltricyclo[3.3.1.1^3,7]dec-1-yl)methyl]-5-methyl-1H-pyrazol-4-yl}pyridine-2-carboxylic acid]",
218,0.17,< 0.001,"Cc1c(-c2ccc(N3CCc4cccc(C(=O)Nc5nc6ccccc6s5)c4C3)nc2C(=O)O)cnn1CC12CC3(C)CC(C)(C1)CC(OCCOCCNCCCP(=O)(O)O)(C3)C2 [Example 1.16, 6-[8-(1,3-benzothiazol-2-ylcarbamoyl)-3,4-dihydroisoquinolin-2 (1H)-yl]-3-(1-{[3,5-dimethyl-7-(2-{2-[(3-phosphonopropyl)amino]ethoxy}ethoxy)tricyclo[3.3.1.1^3,7]dec-1-yl]methyl}-5-methyl-1H-pyrazol-4-yl}pyridine-2-carboxylic acid]",
576,0.3,0.022,"Cc1c(-c2ccc(N3CCc4cccc(C(=O)Nc5nc6ccccc6s5)c4C3)nc2C(=O)O)cnn1CC12CC3(C)CC(C)(C1)CC(OCCN(C)C(=O)[C@@H](N)CC(=O)O)(C3)C2 [Example 1.17, 3-{1-[(3-{2-[L-alpha-aspartyl(methyl)amino]ethoxy}-5,7-dimethyltricyclo[3.3.1.1^3,7]dec-1-yl)methyl]-5-methyl-1H-pyrazol-4-yl}-6-[8-(1,3-benzothiazol-2-ylcarbamoyl)-3,4-dihydroisoquinolin-2 (1H)-yl]pyridine-2-carboxylic acid]",
568,0.046,< 0.001,"Cc1c(-c2ccc(N3CCc4cccc(C(=O)Nc5nc6ccccc6s5)c4C3)nc2C(=O)O)cnn1CC12CC3(C)CC(C)(C1)CC(OCCNC1CCN(CC(=O)O)CC1)(C3)C2 [Example 1.28, 6-[8-(1,3-benzothiazol-2-ylcarbamoyl)-3,4-dihydroisoquinolin-2 (1H)-yl]-3-(1-{[3-(2-{[1-(carboxymethyl)piperidin-4-yl]amino}ethoxy)-5,7-dimethyltricyclo[3.3.1.1^3,7]dec-1-yl]methyl}-5-methyl-1H-pyrazol-4-yl}pyridine-2-carboxylic acid]",
319,0.12,< 0.001,"Cc1c(-c2ccc(N3CCc4cccc(C(=O)Nc5nc6ccccc6s5)c4C3)nc2C(=O)O)cnn1CC12CC3(C)CC(C)(C1)CC(OCCN(CCN)CCS(=O)(=O)O)(C3)C2 [Example 1.33, 3-{1-[(3-{2-[(2-aminoethyl)(2-sulfoethyl)amino]ethoxy}-5,7-dimethyltricyclo[3.3.1.1^3,7]dec-1-yl)methyl]-5-methyl-1H-pyrazol-4-yl}-6-[8-(1,3-benzothiazol-2-ylcarbamoyl)-3,4-dihydroisoquinolin-2 (1H)-yl]pyridine-2-carboxylic acid]",
